Legend:
[1] = concentration changes of 13C methacetin and its dealkylation product Paracetamol in the blood followed by HPLC; conditions: FIG. 8, blood
Description: (§1) Beside or additionally to the determination of the amount of a ^13C labelled metabolization product as for instance ^13CO2 in the exhalation air for estimating the liver performance it is also conceivable to follow the concentration decrease of the dealkylated product in the blood and to deduce from the corresponding slope kinetics a time constant tau.
(§2) The concentration changes of the administered ^13C labelled substrate, for instance ^13C methacetin and of the dealkylation product formed in the liver, for instance Paracetamol, are followed by the means of a suitable analytical method, for instance HPLC. […] The initial concentration changes can also be described here with a differential equation of first order.

[2] = in vivo
Description: as §1, §2

CYP1A2 = target: T1, CYP1A2 (Homo sapiens, UniProt P05177); assay: breath test: 13CO2 increase in exhalation air after intravenous 13C methacetin (DOB slope kinetics, LiMAx); format: in vivo
T1 construct: follow directly and immediately the metabolization of the administered substrate by the enzymes present in the liver; from tissue; host or cells: liver of the living human subject (in vivo)
T1 sequence (P05177 1-516): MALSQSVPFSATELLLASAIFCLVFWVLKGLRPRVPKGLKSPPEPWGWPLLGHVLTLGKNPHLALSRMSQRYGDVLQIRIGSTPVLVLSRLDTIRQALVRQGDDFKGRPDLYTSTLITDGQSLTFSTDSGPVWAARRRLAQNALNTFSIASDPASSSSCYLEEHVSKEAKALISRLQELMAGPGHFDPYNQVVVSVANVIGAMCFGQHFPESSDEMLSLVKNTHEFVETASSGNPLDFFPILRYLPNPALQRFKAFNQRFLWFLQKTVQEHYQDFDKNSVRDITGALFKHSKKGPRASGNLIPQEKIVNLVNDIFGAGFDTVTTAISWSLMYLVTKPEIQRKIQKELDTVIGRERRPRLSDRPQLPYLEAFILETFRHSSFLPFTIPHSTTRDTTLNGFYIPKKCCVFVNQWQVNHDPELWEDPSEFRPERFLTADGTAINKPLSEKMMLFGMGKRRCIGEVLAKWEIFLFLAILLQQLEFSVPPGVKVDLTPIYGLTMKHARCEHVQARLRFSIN
Description: Thereby, the method according to an aspect of the invention comprises the steps of administering at least one ^13C labelled substrate, which is converted by the liver by releasing at least one ^13C labelled metabolization product, in particular ^13CO2 and the step of determining the amount of the at least one formed ^13C labelled metabolization product, in particular of the ^13CO2 amount, in the exhalation air over a definite time interval by the means of at least one measuring device with at least one evaluation unit. In an embodiment, the amount of the formed ^13C labelled metabolization product, in particular of ^13CO2 in the exhalation air, is proportional to the amount of the at least one administered substrate. The method according to an aspect of the invention is characterized in that it is now possible based on the determined measure points to describe the measured initial increase of the amount of the at least one ^13C labelled metabolization product, in particular of the ^13CO2 amount, in the exhalation air by the means of a differential equation of first order. Based on the solution of this differential equation of first order subsequently a maximum value Amax (also designated as DOBmax, whereby DOB stands for “delta over baseline”) and a time constant tau of the increase of the amount of the ^13C labelled metabolization product, in particular of the ^13CO2 amount, are determined.
wherein (t) stands for the metabolization dynamic of the at least one substrate, t for the measuring time, t0 for the start of the metabolization, tau for the time constant of the conversion and Amax for the maximum amplitude of the fitted function or the maximum concentration of the metabolization product and A0 for the initial concentration of the metabolization product. Therefore, a determination of Amax and the time constant tau is possible based on the above equation.
wherein RPDB corresponds to the value 0,011237 (Pee-Dee-Belemnite-standard of the ^13CO2/^12CO2-ratio), P to the CO2 production rate, M to the molar mass of the administered substance and BW to the body weight of the person.
In an embodiment of the present method the determination of the liver performance of a human occurs according to a scheme as shown in FIG. 2. During this measurement course the metabolization is started by the intravenous administering of the substrate to be metabolized, in particular ^13C methacetin 1 in combination with an isotonic sodium chloride solution 1a.
Beside an enzymatic activation of the substrate in particular by the P450 oxygenases also a release or activation of the substrate by the means of radiation or other fast processes is conceivable. The released metabolization product for instance ^13CO2 is transported via the blood into the lung and is there exhaled. The exhalation air is continuously transported into the measuring device 2, e.g., via a breathing mask and a connecting tube and is analyzed by the means of a computer 3 (Stockmann et al., Annals of Surgery, 2009, 250: col. 119-125). A measuring device suitable for the present method is for instance described in WO 2007/107366 A1.
Due to the specific measuring device being applied it is possible to follow the metabolization of the substrate in each breath in real time. This is emphasized in FIG. 3. […] Thereby 1 DOB indicates a change of the ^13CO2 to ^12CO2 ratio at about thousandth part over the natural ratio. As described before, Amax or DOBmax as well as the time constant tau are deducible from said slope. After the ^13CO2 increase has reached a maximum a decrease of the ^13CO2 concentration occurs what can be attributed to further dynamic processes in the body which contribute to the degradation of the measured signal.
described metabolization dynamics it is possible to follow directly and immediately the metabolization of the administered substrate by the enzymes present in the liver. If methacetin is administered as substrate, it is demethylated by the enzyme CYP1A2. […]

SMILES: CC(=O)Nc1ccc(O)cc1 [Paracetamol]
- time constant τ1 for the initial fast concentration increase ([1]; Paracetamol formed from 13C methacetin): 1.3 min
- time constant τ2 for the subsequent decelerated concentration increase ([1]; further distribution in the blood): 16 min

SMILES: CC(=O)Nc1ccc(O[13CH3])cc1 [^13C methacetin, ^13C-methacetin]
- initial concentration in the blood [2]: 20 µg/mL
- measured maximum value A of the 13CO2 increase in the breathing air (CYP1A2; FIG. 7, curve A, determined data points): 22,01 DOB
- time constant tau for the conversion (CYP1A2; FIG. 7, curve B, fit of the initial 13CO2 increase): 2.42 min
- amplitude Amax of the fitted function (CYP1A2; FIG. 7, curve B, fit with solution of a differential equation of first order): 22,09 DOB
- maximum conversion (CYP1A2; after the operation, residual liver volume 625 ml): 169 µg/h/kg
- maximum conversion LiMAx (CYP1A2; before the liver operation, total liver volume 1450 ml): 307 µg/h/kg
- maximum conversion LiMAx (CYP1A2; cirrhosis of the liver (FIG. 4b)): 307 µg/h/kg
- maximum conversion LiMAx (CYP1A2; corresponding to the aspired residual liver volume of 698 ml (rule of three)): 165 µg/h/kg
- maximum conversion LiMAx (CYP1A2; heavy liver damages (FIG. 4c)): 144 µg/h/kg
- maximum conversion LiMAx (CYP1A2; liver failure (FIG. 4d)): 55 µg/h/kg
- maximum conversion LiMAx (CYP1A2; normal liver performance (FIG. 4a)): 504 µg/h/kg
